What all share (format): in vitro ADME
Data set [1] has as its system cryopreserved hepatocytes. As to the kind of experiment: Hepatocyte stability and metabolite profiling, dog. The following applies: dog hepatocyte samples, 10 and 20 minute. The procedure: (§1) The objective of this study was to investigate the stability of the test compound, CBG, in human, rat, dog, mouse, monkey and minipig cryopreserved hepatocytes. Follow-on metabolite profiling was performed.
(§2) CBG was incubated up to 2 hr with cryopreserved hepatocytes. Cryopreserved hepatocytes in suspension were added to test compound in supplemented media following pre-incubation to initiate the reaction and the reactions were stopped by organic solvent at the appropriate time points. The termination plates were centrifuged and sample supernatants were analysed using Cyprotex generic LC MS/MS conditions to generate intrinsic clearance values for CBG. Two control compounds for each species were included in the assay and if the values for these compounds were not within the specified limits the results were rejected and the experiment repeated.
(§3) Following the hepatocyte stability assay the samples were 59 tilized for metabolite profiling using suitable high-resolution LC-MS/MS conditions. The 40 and 60 minute human samples, 20 and 120 minute rat samples, 10 and 20 minute dog and monkey samples, 20 and 60 minute mouse samples, and 40 and 120 minute minipig samples were compared against the 0 minute control sample to establish which and how many metabolites were formed. […]
(§4) The areas and percentages reported for the parent and metabolites were calculated using the XIC data. […]

Data set [2] concerns cryopreserved hepatocytes. Kind of data set: Hepatocyte stability and metabolite profiling, monkey. The conditions noted are these: monkey hepatocyte samples, 10 and 20 minute. As for the experimental part: as §1, §2, §3, §4
The target of data set [3] is T1, rUGT2B7 (Homo sapiens, UniProt P16662).
T1 sequence (P16662 24-529): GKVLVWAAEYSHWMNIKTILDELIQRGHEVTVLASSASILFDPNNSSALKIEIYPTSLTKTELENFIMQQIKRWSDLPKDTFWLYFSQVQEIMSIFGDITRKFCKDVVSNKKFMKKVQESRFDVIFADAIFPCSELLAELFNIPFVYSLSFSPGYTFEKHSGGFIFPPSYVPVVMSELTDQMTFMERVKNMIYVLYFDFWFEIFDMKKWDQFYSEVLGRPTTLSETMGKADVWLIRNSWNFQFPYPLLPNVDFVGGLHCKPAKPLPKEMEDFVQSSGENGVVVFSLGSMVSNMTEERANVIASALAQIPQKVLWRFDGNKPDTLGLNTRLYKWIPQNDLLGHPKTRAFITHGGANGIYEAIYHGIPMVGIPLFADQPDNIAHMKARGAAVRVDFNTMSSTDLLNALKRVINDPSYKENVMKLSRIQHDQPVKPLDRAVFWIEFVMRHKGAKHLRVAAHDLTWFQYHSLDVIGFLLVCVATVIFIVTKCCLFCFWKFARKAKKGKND
As to the kind of experiment: Inhibition of CBG glucuronidation by Compound 1, rUGT2B7. The procedure: The purpose of this experiment was to determine if Compound 1 can inhibit the glucuronidation of CBG, as both are substrates for the two major isoforms responsible for CBG glucuronidation.
The ability of Compound 1 to inhibit the metabolism of CBG by UGT1A9 and UGT2B7 enzymes was investigated to ascertain the IC50 values for direct inhibition. The incubation conditions (substrate concentration, incubation time and protein concentration) were determined in Part 2 of the protocol such that CBG metabolism remains near initial rate conditions (e.g., 20-30% substrate loss).
Preliminary experiments were conducted in Part I of the protocol, first to establish the HPLC/MS/MS bioanalytical methods for CBG and CBG glucuronide. […] The second set of preliminary experiments (Part 2), as mentioned, were conducted to optimize the incubation conditions as described above. Incubations (at 37° C.) contained Tris-HCl buffer (100 mM, pH 7.7), MgCl2 (10 mM), EDTA (1 mM, pH 7.4) and UDP-glucuronic acid (UDPGA, 10 mM). CBG was added to each incubation in DMSO such that the final percent of DMSO was 1% v/v, or less. Reactions were terminated by the addition of an equal volume of stop reagent, acetonitrile containing an internal standard. The samples were centrifuged (e.g., 920 RCF for 10 minutes at 10° C.), and the supernatant fractions were analyzed by LC-MS/MS to determine the amount of CBG remaining and formation of one metabolite (CBG glucuronide).
To examine its ability to act as a direct inhibitor of the above listed enzymes, Compound 1 was be added to recombinant human UGT enzyme together with CBG. Reactions were initiated with UDPGA and were carried out in duplicate. For all assays, reactions were terminated by the addition of acetonitrile with or without 2% v/v formic acid, including the internal standard.
Authentic metabolite reference standards were used for quantitation of the probe substrate metabolites and as internal standards. Based on the information obtained in the Part 2 experiments, the following table summarizes the experiments performed, assessing the inhibitory effects of Compound 1 was conducted as follows:
The amounts of CBG present at the end of the incubation periods was determined. For inhibition to have occurred, the amounts of CBG present at the end of the incubation period needed to increase, and the amounts of glucuronide formed needed to decrease.

[4] abbreviates: 10 μM CBG + 0.01 μM Compound 1, 5 min.
Setting [5] is: 10 μM CBG + 0.03 μM Compound 1, 5 min.
Where [6] appears, read: 10 μM CBG + 0.1 μM Compound 1, 5 min.
Where [7] appears, read: 10 μM CBG + 0.3 μM Compound 1, 5 min.
Setting [8] is: 10 μM CBG + 1 μM Compound 1, 5 min.
Where [9] appears, read: 10 μM CBG + 3 μM Compound 1, 5 min.
[10] abbreviates: 10 μM CBG + 10 μM Compound 1, 5 min.

Here are results for two molecules from patent publication US12433903B2 (priority 2021, dated 2025).

As to `CCCCCc1cc(O)c(C/C=C(\C)CCC=C(C)C)c(O)c1` [CBG, cannabigerol], the “metabolites observed (number)” value in data set [1] is “three”; in data set [2] it was “four”.

Consider `CCCCCc1cc(O)c(C/C=C(\C)CCC=C(C)C)c(OC)c1` [Compound 1, (E)-2-(3,7-dimethylocta-2,6-dien-1-yl)-3-methoxy-5-pentylphenol], for which the “CBG detected (CBG loss)” value in data set [3] (setting [4]) was determined as 1370 pmol; in data set [3] (setting [5]), 1460 pmol; in data set [3] (setting [6]), 1410 pmol; in data set [3] (setting [7]), 1450 pmol; in data set [3] (setting [8]), 1460 pmol; in data set [3] (setting [9]), 1440 pmol. The “CBG detected (CBG loss)” value in data set [3] (setting [10]) is 1470 pmol. The “CBG detected, Percent of control” value was 103 in data set [3] (setting [4]); 109 in data set [3] (setting [5]); 106 in data set [3] (setting [6]); 109 in data set [3] (setting [7]); 109 in data set [3] (setting [8]); 108 in data set [3] (setting [9]). Moreover, the “CBG detected, Percent of control” value in data set [3] (setting [10]) came out at 111. The CBG glucuronide formed in data set [3] (setting [4]) turned out to be 260000 area ratio. The “CBG glucuronide formed, Percent of control” value worked out at 104 in data set [3] (setting [4]); 101 in data set [3] (setting [5]); 103 in data set [3] (setting [6]); 105 in data set [3] (setting [7]); 102 in data set [3] (setting [8]); 101 in data set [3] (setting [9]). For the same molecule, in data set [3] (setting [10]), the “CBG glucuronide formed, Percent of control” value was 96.0. In addition, in data set [3] (0.01-10 μM Compound 1, CBG disappearance or glucuronide formation), the “metabolism of CBG in the presence of Compound 1 (in words)” value is recorded as “essentially unchanged”.
